# Assay results: US20240180910A1, “METHOD FOR TREATING CANCER WITH A CHEMOTHERAPEUTIC MODIFIER” (Elion Oncology, Inc., priority 2022, published 2024)
# Where two headings read alike, the source gives them in different places.
# Tests used:
# [1] = cited from earlier work
# [2] = cited from earlier work; for t1/2: arithmetic mean
# [3] = Clinical trial: plasma pharmacokinetics, capecitabine 7 days on + 7 days off ~24 hours after single oral 40 mg eniluracil; conditions: day 8
# Experimental: (§1) To evaluate the safety, dose-limiting toxicities (DLTs), and maximum tolerated dose (MTD) of capecitabine administered to patients with advanced, refractory gastrointestinal tract (GI) tumors using a 7 days on +7 days off capecitabine regimen ˜24 hours after a single, fixed, oral 40 mg dose of eniluracil.
# (§2) Eniluracil (40-50 mg) is orally administrated at Day 1. After 12-24 hours, capecitabine is orally administered. Capecitabine is given twice a day at 140-600 mg/day for a total of 7 days. Then the patient is rested for 7 days before receiving the next cycle which follows the above-described procedures. The cycles are repeated until either the patient has a complete response or when the disease progresses in the patient. A complete response means that the tumor is no longer present. Progression of the cancer means that the tumor starts enlarging or the tumor is no longer stable.
# (§3) Primary Endpoints: • DLTs and incidences of AEs according to NCI CTCAE Version 5.0. • Concentrations of capecitabine, 5 FU, FBAL, 5′ DFCR, and 5′ DFUR in plasma, PK parameters will be estimated from concentration time data using noncompartmental methods, as data permit. • Concentrations of eniluracil in plasma; PK parameters will be estimated from concentration-time data using noncompartmental methods, as data permit. • 2.
# (§4) Briefly, capecitabine was administered to patients with advanced, refractory gastrointestinal tract (GI) tumors using a 7 days on +7 days off capecitabine regimen ˜24 hours after a single, fixed, oral 40 mg dose of eniluracil.
# [4] = human, in vivo
# Experimental: as §1, §2, §3, §4
# [5] = doses up to 50 g per day administered for seven days; cited from earlier work
# [6] = colon cancer, adjuvant, XELODA 1250 mg/m^2/bid (n = 995), i.v. 5-FU/LV Mayo Clinic regimen (n = 974), cited from earlier work
# [7] = system: patient-derived colon cancer xenograft CXF 280; conditions: for Minimum T/C: days 1-14, 22-35, Day 35
# Experimental: This study was to assess the antitumor efficacy of eniluracil in combination with different doses of capecitabine in the patient-derived colon xenograft CXF 280 subcutaneously implanted in immunodeficient athymic nude mice.
# The study consisted of an in vivo efficacy experiment with the patient-derived colon cancer xenograft CXF 280 implanted subcutaneously in athymic nude mice.
# This experiment consisted of six groups with six animals each. Animals were dosed in monotherapy with capecitabine at 300 or at 30 mg/kg/day daily for 2 weeks with a one-week dosing break followed by another 2 weeks of daily dosing (14 days ON and 7 days OFF). In combination therapies, capecitabine was dosed at 30, 15 or 7.5 mg/kg/day on days 1-7, 15-21 and 29-35 (7 days ON and 7 days OFF) as well as with eniluracil at 10 mg/kg/day on days 1, 3, 5, 15, 17, 19, 29, 31, and 33.
# Combination therapies with capecitabine and eniluracil scheduled for the same dosing day were administered with a six-hour dosing delay after dosing with eniluracil in order to ensure that all the eniluracil is eliminated in the mouse prior to capecitabine administration.
# All therapies were administered via oral gavage (p.o.) over the course of 35 days followed by an observation period of one week until day 42 of the experiment.
# Relative tumor volumes (RTVs) for Day x were calculated by dividing the absolute individual tumor volume on Day x (Tx) by the absolute individual tumor volume of the same tumor on the day of randomization (Tr) multiplied by 100%.
# Tumor growth inhibition was determined by comparison of the median RTV of the test groups (T) with the vehicle control group (C) and was expressed as minimum T/C value in percent. The minimum T/C value recorded for a test group during an experiment represents the maximum antitumor efficacy for the respective treatment.
# clinical = conditions: human, in vivo
# Experimental: as §1, §2, §3, §4
# [8] = 2005 EMA for Xeloda, capecitabine alone 1250 mg/m^2
# [9] = plasma, Day 14, after oral capecitabine 1255 mg/m^2, 8 cancer patients
# [10] = plasma, Day 14, after oral capecitabine 1255 mg/m^2, 8 cancer patients, geometric mean
# [11] = plasma, Day 14, after oral capecitabine 1255 mg/m^2, 8 cancer patients, median
smiles,measurement,setting,value
"C[C@H]1O[C@@H](n2cc(F)c(=O)[nH]c2=O)[C@H](O)[C@@H]1O [5′DFUR, doxifluridine]",AUC0-∞,[1]; [8],24600 ng·h/mL
same,peak plasma concentrations (Cmax),[1]; [8],12100 ng/mL
same,time to peak plasma concentrations (tmax),[1]; [8],2.00 h
same,t1/2,[2]; [9],0.66 h
same,AUC0-t,[2]; [10],19900 ng·h/mL
same,AUC0-∞,[2]; [10],21700 ng·h/mL
same,Cmax,[2]; [10],9370 ng/mL
"NCC(F)C(=O)O (stereo not drawn) [FBAL, α-fluoro-β-alanine]",AUC0-∞,"[1]; in vivo, 1250 mg/m2",36300 ng·h/mL
same,peak plasma concentrations (Cmax),"[1]; in vivo, 1250 mg/m2",5460 ng/mL
same,time to peak plasma concentrations (tmax),"[1]; in vivo, 1250 mg/m2",3.34 h
same,effects of eniluracil on FBAL metabolism,[3],no longer apparent
same,AUC0-t,"[2]; human, in vivo, po, 1255 mg/m2",30000 ng·h/mL
same,AUC0-∞,"[2]; human, in vivo, po, 1255 mg/m2",35200 ng·h/mL
same,Cmax,"[2]; human, in vivo, po, 1255 mg/m2",5320 ng/mL
same,exposure (AUC),"[2]; human, in vivo, po, 1255 mg/m2","30-35,000 h*ng/mL"
same,tmax,"[2]; human, in vivo, po, 1255 mg/m2",3.34 h
same,Tmax of FBAL,"[2]; human, in vivo",3.24 h
same,t1/2,[2]; [9],3.23 h
"C[C@H]1O[C@@H](n2cc(F)c(N)nc2=O)[C@H](O)[C@@H]1O [5′-DFCR, 5′-deoxy-5-fluorocytidine]",AUC0-∞,[1]; [8],7240 ng·h/mL
same,peak plasma concentrations (Cmax),[1]; [8],3050 ng/mL
same,time to peak plasma concentrations (tmax),[1]; [8],2.00 h
same,t1/2,[2]; [9],1.31 h
same,AUC0-t,[2]; [10],3970 ng·h/mL
same,AUC0-∞,[2]; [10],5210 ng·h/mL
same,Cmax,[2]; [10],1710 ng/mL
same,tmax,[2]; [11],2.00 h
O=C1NCC(F)C(=O)N1 (centres unmarked) [FUH2],t1/2,[2]; [9],1.14 h
same,AUC0-t,[2]; [10],1200 ng·h/mL
same,AUC0-∞,[2]; [10],2150 ng·h/mL
same,Cmax,[2]; [10],442 ng/mL
same,tmax,[2]; [11],2.28 h
"C#Cc1c[nH]c(=O)[nH]c1=O [Eniluracil, 5-Ethynyluracil]",metabolism of capecitabine into FBAL (AUC and Cmax of FBAL),[4],completely blocked
same,safety,[5],safe
"CCCCCOC(=O)Nc1nc(=O)n([C@@H]2O[C@H](C)[C@@H](O)[C@H]2O)cc1F [Capecitabine, capecitabine]",AUC0-∞,[1]; [8],7750 ng·h/mL
same,peak plasma concentrations (Cmax),[1]; [8],4670 ng/mL
same,time to peak plasma concentrations (tmax),[1]; [8],1.50 h
same,"Abdominal pain upper, Grade 3/4",[6],<1%
same,"Abdominal pain upper, Total",[6],6%
same,"Abdominal pain, Grade 3/4",[6],2%
same,"Abdominal pain, Total",[6],10%
same,"Alopecia, Total",[6],6%
same,"Anorexia, Grade 3/4",[6],<1%
same,"Anorexia, Total",[6],9%
same,"Asthenia, Grade 3/4",[6],<1%
same,"Asthenia, Total",[6],9%
same,"Conjunctivitis, Grade 3/4",[6],<1%
same,"Conjunctivitis, Total",[6],5%
same,"Constipation, Total",[6],6%
same,"Diarrhea, Grade 3/4",[6],11%
same,"Dizziness, Grade 3/4",[6],<1%
same,"Dizziness, Total",[6],5%
same,"Dysgeusia, Total",[6],6%
same,"Dyspepsia, Grade 3/4",[6],<1%
same,"Dyspepsia, Total",[6],5%
same,"Erythema, Grade 3/4",[6],1%
same,"Erythema, Total",[6],6%
same,"Fatigue, Grade 3/4",[6],<1%
same,"Fatigue, Total",[6],15%
same,"Hand-foot Syndrome, Grade 3/4",[6],17%
same,"Lethargy, Grade 3/4",[6],<1%
same,"Lethargy, Total",[6],10%
same,"Nausea, Grade 3/4",[6],2%
same,"Nausea, Total",[6],33%
same,"Neutropenia, Grade 3/4",[6],<1%
same,"Neutropenia, Total",[6],2%
same,"Pyrexia, Grade 3/4",[6],<1%
same,"Pyrexia, Total",[6],4%
same,"Rash, Total",[6],6%
same,"Stomatitis, Grade 3/4",[6],2%
same,"Stomatitis, Total",[6],22%
same,"Vomiting, Grade 3/4",[6],2%
same,"Vomiting, Total",[6],14%
same,"Diarrhea, Total",[6]; listed as XELODA,46%
same,"Hand-foot Syndrome, Total",[6]; listed as XELODA,60%
same,"Diarrhea, Total",[6]; listed as Xeloda,about 46%
same,"Hand-foot Syndrome, Total",[6]; listed as Xeloda,about 60%
same,Minimum T/C,[7]; Group 2: capecitabine 300 mg/kg/day p.o.,4.5%
same,Minimum T/C,[7]; Group 3: capecitabine 30 mg/kg/day p.o.,34.9%
same,antitumor activity (in words),[7]; monotherapy with capecitabine at 300 mg/kg/day in mice,high antitumor activity
same,t1/2,[2]; [9],0.85 h
same,AUC0-t,[2]; [10],7290 ng·h/mL
same,AUC0-∞,[2]; [10],7400 ng·h/mL
same,Cmax,[2]; [10],3990 ng/mL
same,tmax,[2]; [11],1.50 h
"O=c1[nH]cc(F)c(=O)[nH]1 [5-FU, 5-Fluorouracil]",AUC0-∞,[1]; [8],2030 ng·h/mL
same,peak plasma concentrations (Cmax),[1]; [8],950 ng/mL
same,5-FU Mean T1/2,[2]; Capecitabine alone,0.76 h
same,exposure (AUC),[2]; after capecitabine oral dosing at 1255 mg/m^2,approximately 1630 h*ng/mL
same,t1/2,[2]; [9],0.76 h
same,AUC0-t,[2]; [10],1620 ng·h/mL
same,AUC0-∞,[2]; [10],1630 ng·h/mL
same,Cmax,[2]; [10],709 ng/mL
same,tmax,[2]; [11],2.00 h
same,half-life,"clinical; 5-FU Day 2 Mean T1/2, capecitabine daily dose 75 (with Eniluracil)",3.6 h
same,half-life,"clinical; 5-FU Day 2 Mean T1/2, capecitabine daily dose 150 (with Eniluracil)",3.35 h
same,half-life,"clinical; 5-FU Day 2 Mean T1/2, capecitabine daily dose 300 (with Eniluracil)",3.54 h
same,half-life,"clinical; 5-FU Day 2 Mean T1/2, capecitabine daily dose 450 (with Eniluracil)",5.71 h
same,half-life,"clinical; half-life (T1/2) of 5-FU at day 2, capecitabine in combination with eniluracil pretreatment, highest over doses",≤ 5.71 h
